ChEMBL document CHEMBL4007424, “Design and Synthesis of Enantiomerically Pure Decahydroquinoxalines as Potent and Selective κ-Opioid Receptor Agonists with Anti-Inflammatory Activity in Vivo” (J Med Chem, 2017)
pEC50, pKi: −log10 of the molar value.

Legend:
[1] = Plasma concentration in Wistar Han rat at 1 mg/kg, iv measured 0.25 hrs post compound administration; assay type: ADME, organism-based
[2] = Plasma concentration in Wistar Han rat at 1 mg/kg, iv measured 1 hr post compound administration; assay type: ADME, organism-based
[3] = Drug level in Wistar Han rat brain at 1 mg/kg, iv measured 1 hr post compound administration; assay type: ADME, organism-based; conditions: Wistar Han, brain, read-out: Drug uptake
[4] = Ratio of drug level in brain to plasma in Wistar Han rat at 1 mg/kg, iv after 1 hr; assay type: ADME, organism-based; conditions: read-out: BPR
Rattus norvegicus [5] = experiment: Toxicity in Wistar Han rat assessed as induction of slight lethargy at 1 mg/kg, iv after 0.25 hrs; assay type: organism-based; conditions: in vivo
Rattus norvegicus [6] = experiment: Toxicity in Wistar Han rat assessed as induction of slight lethargy at 5 mg/kg, iv after 1 hr; assay type: organism-based; conditions: in vivo
[7] = Plasma concentration in Wistar Han rat at 5 mg/kg, iv measured 0.25 hrs post compound administration; assay type: ADME, organism-based
[8] = Plasma concentration in Wistar Han rat at 5 mg/kg, iv measured 1 hr post compound administration; assay type: ADME, organism-based
[9] = Drug level in Wistar Han rat brain at 5 mg/kg, iv measured 1 hr post compound administration; assay type: ADME, organism-based; conditions: read-out: Drug uptake
[10] = Ratio of drug level in brain to plasma in Wistar Han rat at 5 mg/kg, iv after 1 hr; assay type: ADME, organism-based; conditions: read-out: BPR
Rattus norvegicus [11] = experiment: Toxicity in Wistar Han rat assessed as severe lethargy at 5 mg/kg, iv after 0.25 hrs; assay type: organism-based; conditions: in vivo
Rattus norvegicus [12] = experiment: Toxicity in Wistar Han rat assessed as moderate tonic spasms at 5 mg/kg, iv after 0.25 hrs; assay type: organism-based; conditions: in vivo
Rattus norvegicus [13] = experiment: Toxicity in Wistar Han rat assessed as moderate extension spasms of the tail at 5 mg/kg, iv after 0.25 hrs; assay type: organism-based; conditions: in vivo
Rattus norvegicus [14] = experiment: Toxicity in Wistar Han rat assessed as severe cramped posture at 5 mg/kg, iv after 0.25 hrs; assay type: organism-based; conditions: in vivo
Rattus norvegicus [15] = experiment: Toxicity in Wistar Han rat assessed as flat posture at 5 mg/kg, iv after 0.25 hrs; assay type: organism-based; conditions: in vivo
Rattus norvegicus [16] = experiment: Toxicity in Wistar Han rat assessed as severe lethargy at 5 mg/kg, iv after 1 hr; assay type: organism-based; conditions: in vivo
Rattus norvegicus [17] = experiment: Toxicity in Wistar Han rat assessed as moderate tonic spasms at 5 mg/kg, iv after 1 hr; assay type: organism-based; conditions: in vivo
Rattus norvegicus [18] = experiment: Toxicity in Wistar Han rat assessed as moderate extension spasms of the tail at 5 mg/kg, iv after 1 hr; assay type: organism-based; conditions: in vivo
Rattus norvegicus [19] = experiment: Toxicity in Wistar Han rat assessed as severe cramped posture at 5 mg/kg, iv after 1 hr; assay type: organism-based; conditions: in vivo
Rattus norvegicus [20] = experiment: Toxicity in Wistar Han rat assessed as flat posture at 5 mg/kg, iv after 1 hr; assay type: organism-based; conditions: in vivo
[21] = Displacement of [3H]-DTG from sigma 2 receptor in rat liver membranes after 120 mins by scintillation counting; assay type: cell membranes, Membrane
Mus musculus [22] = experiment: Antiinflammatory activity in arachidonic acid-induced ear dermatitis ICR mouse model assessed as reduction in ear swelling at 0.1 mg administered twice tropically 30 mins prior and 15 mins after arachidonic acid addition measured 60 mins post arachidonic acid challenge relative to control; assay type: functional
Mus musculus [23] = experiment: Antiinflammatory activity in arachidonic acid-induced ear dermatitis ICR mouse model assessed as reduction in ear swelling at 0.3 mg administered twice tropically 30 mins prior and 15 mins after arachidonic acid addition measured 60 mins post arachidonic acid challenge relative to control; assay type: functional
Mus musculus [24] = experiment: Antiinflammatory activity in arachidonic acid-induced ear dermatitis ICR mouse model assessed as reduction in ear swelling at 1 mg administered twice tropically 30 mins prior and 15 mins after arachidonic acid addition measured 60 mins post arachidonic acid challenge relative to control; assay type: functional
Mus musculus [25] = experiment: Antiinflammatory activity in arachidonic acid-induced ear dermatitis ICR mouse model assessed as reduction in ear swelling at 3 mg administered twice tropically 30 mins prior and 15 mins after arachidonic acid addition measured 60 mins post arachidonic acid challenge relative to control; assay type: functional
Mus musculus [26] = experiment: (§1) Antiinflammatory activity in oxazolone-induced delayed type hypersensitivity BALB/c mouse model assessed as ear weight at 0.5 mg applied topically on ear administered 3 hrs prior to oxazolone challenge on day 7 to 12 post sensitization followed by re-administration of compound on day 13 to 18 without oxazolone challenge measured on day 19 (reference value: 30.2 +/- 0.7 mg); assay type: functional
Mus musculus [27] = experiment: as §1, with “2.5” for “0.5”; assay type: functional
Mus musculus [28] = experiment: Antinociceptive activity in sc dosed mouse model of acetic acid-induced writhing; assay type: functional
Mus musculus [29] = experiment: CNS toxicity in sc dosed mouse model of acetic acid-induced writhing assessed as lowest dose causing side effects; assay type: organism-based; conditions: in vivo
Mus musculus [30] = experiment: Antiinflammatory activity in arachidonic acid-induced ear dermatitis ICR mouse model assessed as reduction in ear swelling at 3 mg administered tropically 30 mins prior and 15 min after arachidonic acid addition measured 60 mins post arachidonic acid challenge relative to control; assay type: functional
[31] = target: Kappa-type opioid receptor (Cavia porcellus, UniProt P41144); experiment: Displacement of [3H]U-69,593 from kappa-type opioid receptor in guinea pig brain membranes after 120 mins by solid scintillation counting; assay type: cell membranes, Membrane
Mu-type opioid receptor = Mu-type opioid receptor (Cavia porcellus, UniProt P97266); experiment: Displacement of [3H]DAMGO from mu-type opioid receptor in guinea pig brain membranes after 120 mins by solid scintillation counting; assay type: cell membranes, Membrane
[32] = Displacement of [3H]DPDPE from delta-type opioid receptor in guinea pig brain membranes after 120 mins by solid scintillation counting; assay type: cell membranes, Cavia porcellus, Membrane
[33] = Displacement of [3H]-(+)-MK 801 from PCP binding site of NMDA receptor in pig brain cortex membranes after 120 mins by solid scintillation counting; assay type: cell membranes, Sus scrofa
[34] = target: Kappa-type opioid receptor (Homo sapiens, UniProt P41145); experiment: Agonist activity at recombinant human kappa-type opioid receptor expressed in HEK293 cells after 30 mins by [35S]GTPgammaS binding assay; assay type: functional, cell-based
Chain of Kappa-type opioid receptor (Homo sapiens, UniProt P41145) (P41145 whole entry): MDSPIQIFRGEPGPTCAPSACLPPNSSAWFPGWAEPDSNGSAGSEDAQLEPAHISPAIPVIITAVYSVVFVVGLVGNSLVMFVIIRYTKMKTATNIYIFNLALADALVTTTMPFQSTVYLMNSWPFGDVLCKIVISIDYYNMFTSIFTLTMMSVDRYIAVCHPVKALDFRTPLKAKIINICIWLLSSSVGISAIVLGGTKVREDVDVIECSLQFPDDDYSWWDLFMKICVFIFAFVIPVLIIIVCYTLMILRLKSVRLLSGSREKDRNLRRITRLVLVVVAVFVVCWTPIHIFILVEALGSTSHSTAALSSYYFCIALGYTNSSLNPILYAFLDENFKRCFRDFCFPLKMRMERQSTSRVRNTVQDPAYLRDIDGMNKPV

Chain of Kappa-type opioid receptor (Cavia porcellus, UniProt P41144) (P41144 whole entry): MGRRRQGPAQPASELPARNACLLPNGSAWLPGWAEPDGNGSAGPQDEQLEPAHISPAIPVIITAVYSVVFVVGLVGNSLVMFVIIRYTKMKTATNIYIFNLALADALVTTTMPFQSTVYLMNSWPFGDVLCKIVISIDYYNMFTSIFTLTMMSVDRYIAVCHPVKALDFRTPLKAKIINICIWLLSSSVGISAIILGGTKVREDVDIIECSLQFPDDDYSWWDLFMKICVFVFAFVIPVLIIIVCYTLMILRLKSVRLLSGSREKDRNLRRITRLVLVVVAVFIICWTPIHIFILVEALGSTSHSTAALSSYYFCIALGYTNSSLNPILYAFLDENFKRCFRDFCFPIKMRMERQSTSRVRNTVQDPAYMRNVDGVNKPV
Chain of Mu-type opioid receptor (P97266 whole entry): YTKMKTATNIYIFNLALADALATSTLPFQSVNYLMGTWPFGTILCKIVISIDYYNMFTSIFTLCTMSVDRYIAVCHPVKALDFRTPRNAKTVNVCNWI

Question: With `COC(=O)N1CCN(C(=O)Cc2ccc(Cl)c(Cl)c2)[C@@H]2[C@@H](N(C)C)CCC[C@@H]21.Cl` as the compound, how does the concentration at 0.25 h [1] read?
Answer: Its concentration at 0.25 h is 355 ng/mL.

Question: And the concentration at 1 h [2]?
Answer: The concentration at 1 h was 186 ng/mL.

Question: And the concentration at 1 h [3]?
Answer: Its concentration at 1 h is 101 ng/g.

Question: And the Kp at 1 h [4]?
Answer: The Kp at 1 h was 0.54.

Question: And the Activity (Rattus norvegicus [5])?
Answer: The Activity was “Toxic”.

Question: What about the Activity (Rattus norvegicus [6]) of the same compound?
Answer: The Activity was “Toxic”.

Question: Which results are given for `COC(=O)N1CCN(C(=O)Cc2ccc(F)c(Cl)c2)[C@@H]2[C@@H](N3CC[C@H](F)C3)CCC[C@@H]21.Cl`?
Answer: concentration at 0.25 h [7]: 3070 ng/mL; concentration at 1 h [8]: 811 ng/mL; concentration at 1 h [9]: 86.6 ng/g; Kp at 1 h [10]: 0.11; Activity (Rattus norvegicus [11]): Toxic; Activity (Rattus norvegicus [12]): Toxic; Activity (Rattus norvegicus [13]): Toxic; Activity (Rattus norvegicus [14]): Toxic; Activity (Rattus norvegicus [15]): Toxic; Activity (Rattus norvegicus [16]): Toxic; Activity (Rattus norvegicus [17]): Toxic; Activity (Rattus norvegicus [18]): Toxic; Activity (Rattus norvegicus [19]): Toxic; Activity (Rattus norvegicus [20]): Toxic

Question: What does the source list for `COC(=O)N1CCN(C(=O)Cc2ccc(Cl)c(Cl)c2)[C@@H]2[C@@H](N3CCCC3)CCC[C@@H]21`?
Answer: pKi [21]: 6.60; inhibition (INH) (Mus musculus [22]): 23%; inhibition (INH) (Mus musculus [23]): 27%; inhibition (INH) (Mus musculus [24]): 27%; inhibition (INH) (Mus musculus [25]): 51%; Activity (Mus musculus [26]): 27.5 mg; Activity (Mus musculus [27]): 28.2 mg; ED50 (Mus musculus [28]): 0.26 mg/kg; MTC (Mus musculus [29]): 0.06 mg/kg

Question: Which “inhibition (INH)” value (Mus musculus [30]) does the source give for `COc1ccc2c(c1)c(CC(=O)O)c(C)n2C(=O)c1ccc(Cl)cc1` [INDOMETHACIN] here?
Answer: The value was 38%.

Question: And the “inhibition (INH)” value (Mus musculus [22])?
Answer: The value was 38 - 65%.

Question: And the “inhibition (INH)” value (Mus musculus [25])?
Answer: Its value is 38 - 65%.

Question: With `CN(C)S(=O)(=O)N1CCN(C(=O)Cc2ccc(Cl)c(Cl)c2)[C@@H]2[C@@H](N3CCCC3)CCC[C@@H]21` as the compound, how does the pKi [31] read?
Answer: Its pKi is 9.02.

Question: What about the pKi (Mu-type opioid receptor) of the same compound?
Answer: Its pKi is 7.68.

Question: And the pKi [32]?
Answer: The pKi was 7.96.

Question: What about the pKi [33] of the same compound?
Answer: The pKi was 5.60.

Question: And the pEC50 [34]?
Answer: Its pEC50 is 8.66.
